Results reported in US11530237B2, “Compositions and methods for treating CNS disorders” (Sage Therapeutics, Inc., priority 2014, dated 2022).

Biological target: α1β2γ2 GABAA receptors (Homo sapiens (Human), UniProt P14867+P47870)
Assay: Patch clamp electrophysiology (QPatch) of recombinant α1β2γ2 GABAA receptors in LTK cells
Type: cell-based
Details: 10 μM test article, GABA EC20 = 2 μM, read-out: GABA (α1β2γ2) Qpatch in Ltk, % efficacy at 10 μM
Description: Cellular electrophysiology is used to measure the pharmacological properties of our GABAA receptor modulators in heterologous cell systems. Each compound is tested for its ability to affect GABA mediated currents at a suhmaximal agonist dose (GABA EC20=2 μM). LTK cells are stably transfected with the α1β2γ2 subunits of the GABA receptor and CHO cells are transiently transfected with the α4β3δ subunits via the Lipofecatamine method. Cells were passaged at a confluence of about 50-80% and then seeded onto 35 mm sterile culture dishes containing 2 ml culture complete medium without antibiotics or antimycotics. Confluent clusters of cells are electrically coupled (Pritchett et al., Science, 1988, 242, 1306-1308). Because responses in distant cells are not adequately voltage clamped and because of uncertainties about the extent of coupling (Verdoom et al., Neuron 1990, 4, 919-928), cells were cultivated at a density that enables the recording of single cells (without visible connections to other cells).
Whole cell currents were measured with HEKA EPC-10 amplifiers using PatchMaster software or by using the high throughput QPatch platform (Sophion). Bath solution for all experiments contained (in mM): NaCl 137 mM, KCl 4 mM, CaCl2 1.8 mM, MgCl2 1 mM, HEPES 10 mM, D-Glucose 10 mM, pH (NaOH) 7.4. In some cases 0.005% cremophor was also added. Intracellular (pipette) solution contained: KCl 130 mM, MgCl2 1 mM, Mg-ATP 5 mM, HEPES 10 mM, EGTA 5 mM, pH 7.2. During experiments, cells and solutions were maintained at room temperature (19° C.-30° C.). For manual patch clamp recordings, cell culture dishes were placed on the dish holder of the microscope and continuously perfused (1 ml/min) with bath solution. After formation of a Gigaohm seal between the patch electrodes and the cell (-ipette resistance range: 2.5 MΩ-6.0 MΩ; seal resistance range:>1 GΩ) the cell membrane across the pipette tip was ruptured to assure electrical access to the cell interior (whole-cell patch-configuration). For experiments using the QPatch system, cells were transferred as suspension to the QPatch system in the bath solution and automated whole cell recordings were performed.
Cells were voltage clamped at a holding potential of −80 mV. For the analysis of test articles, GABA receptors were stimulated by 2 μM GABA after sequential pre-incubation of increasing concentrations of the test article. Pre-incubation duration was 30 s and the duration of the GABA stimulus was 2s. Test articles were dissolved in DMSO to form stock solutions (10 mM). Test articles were diluted to 0.01, 0.1, 1, and 10 μM in bath solution. All concentrations of test articles were tested on each cell. The relative percentage potentiation was defined as the peak amplitude in response to GABA EC20 in the presence of the test article divided by the peak amplitude in response to GABA EC20 alone, multiplied by 100. For Table 2. GABAA receptors α1β2γ2 and α4β3δ% efficacy: “A” 10-100, “B”>100-500, “C”>500; D indicates the data is not available or has not been determined.

| SMILES | Emax at 10 µM [%] |
| --- | --- |
| CO[C@H]1C[C@@]2(C)[C@@H](CC[C@@H]3[C@@H]2CC[C@]2(C)[C@@H](C(=O)CN4CCOCC4)CC[C@@H]32)C[C@@H]1O [Compound 1] | 100 to 500 |
| CO[C@H]1C[C@@]2(C)[C@@H](CC[C@@H]3[C@@H]2CC[C@]2(C)[C@@H](C(=O)Cn4ccnn4)CC[C@@H]32)C[C@@H]1O [Compound 3] | 100 to 500 |
| CO[C@H]1C[C@@]2(C)[C@@H](CC[C@@H]3[C@@H]2CC[C@]2(C)[C@@H](C(=O)Cn4nccn4)CC[C@@H]32)C[C@]1(C)O [Compound 42] | 100 to 500 |
| C[C@@]1(O)CC[C@@]2(C)[C@@H](CC[C@@H]3[C@@H]2CC[C@]2(C)[C@@H](C(=O)Cn4nc5ccc(Cl)c(F)c5n4)CC[C@@H]32)C1 [Compound 112] | 100 to 500 |
| COc1ccc2nn(CC(=O)[C@H]3CC[C@H]4[C@@H]5CC[C@H]6C[C@](C)(O)CC[C@]6(C)[C@H]5CC[C@]34C)nc2c1 [Compound 125] | 100 to 500 |
| COc1ccc2nnn(CC(=O)[C@H]3CC[C@H]4[C@@H]5CC[C@H]6C[C@](C)(O)CC[C@]6(C)[C@H]5CC[C@]34C)c2c1 [Compound 126] | 100 to 500 |
| COc1ccc2c(c1)nnn2CC(=O)[C@H]1CC[C@H]2[C@@H]3CC[C@H]4C[C@](C)(O)CC[C@]4(C)[C@H]3CC[C@]12C [Compound 127] | 100 to 500 |
| C[C@@]1(O)CC[C@@]2(C)[C@@H](CC[C@@H]3[C@@H]2CC[C@]2(C)[C@@H](C(=O)Cn4nc5cccc(F)c5n4)CC[C@@H]32)C1 [Compound 128] | 100 to 500 |
| C[C@@]1(O)CC[C@@]2(C)[C@@H](CC[C@@H]3[C@@H]2CC[C@]2(C)[C@@H](C(=O)Cn4ccnc4C#N)CC[C@@H]32)C1 [Compound 129] | 100 to 500 |
| Cc1cnn(CC(=O)[C@H]2CC[C@H]3[C@@H]4CC[C@H]5C[C@](C)(O)CC[C@]5(C)[C@H]4CC[C@]23C)c1 [Compound 130] | 100 to 500 |
| C[C@@]1(O)CC[C@@]2(C)[C@@H](CC[C@@H]3[C@@H]2CC[C@]2(C)[C@@H](C(=O)Cn4cc(C(F)(F)F)cn4)CC[C@@H]32)C1 [Compound 131] | 100 to 500 |
| Cc1cn(CC(=O)[C@H]2CC[C@H]3[C@@H]4CC[C@H]5C[C@](C)(O)CC[C@]5(C)[C@H]4CC[C@]23C)cn1 [Compound 135] | 100 to 500 |
| Cc1cncn1CC(=O)[C@H]1CC[C@H]2[C@@H]3CC[C@H]4C[C@](C)(O)CC[C@]4(C)[C@H]3CC[C@]12C [Compound 136] | 100 to 500 |
| C[C@@]1(O)CC[C@@]2(C)[C@@H](CC[C@@H]3[C@@H]2CC[C@]2(C)[C@@H](C(=O)Cn4cc(Cl)cn4)CC[C@@H]32)C1 [Compound 137] | 100 to 500 |
| COC[C@@]1(O)CC[C@@]2(C)[C@@H](CC[C@@H]3[C@@H]2CC[C@]2(C)[C@@H](C(=O)Cn4cc(C(F)(F)F)cn4)CC[C@@H]32)C1 [Compound 140] | 100 to 500 |
| COC[C@@]1(O)CC[C@@]2(C)[C@@H](CC[C@@H]3[C@@H]2CC[C@]2(C)[C@@H](C(=O)Cn4ccnc4)CC[C@@H]32)C1 [Compound 141] | > 500 |
| CCOc1cnn(CC(=O)[C@H]2CC[C@H]3[C@@H]4CC[C@@H]5C[C@](C)(O)CC[C@]5(C)[C@H]4CC[C@]23C)c1 [Compound 145] | > 500 |
| Cc1cnn(CC(=O)[C@H]2CC[C@H]3[C@@H]4CC[C@@H]5C[C@](C)(O)CC[C@]5(C)[C@H]4CC[C@]23C)c1 [Compound 147] | > 500 |
| COc1cnn(CC(=O)[C@H]2CC[C@H]3[C@@H]4CC[C@H]5C[C@](C)(O)CC[C@]5(C)[C@H]4CC[C@]23C)c1 [Compound 148] | 100 to 500 |
| C[C@@]1(O)CC[C@@]2(C)[C@@H](CC[C@@H]3[C@@H]2CC[C@]2(C)[C@@H](C(=O)Cn4cnc(C#N)c4)CC[C@@H]32)C1 [Compound 154] | 100 to 500 |
| COC[C@@]1(O)CC[C@@]2(C)[C@@H](CC[C@@H]3[C@@H]2CC[C@]2(C)[C@@H](C(=O)Cn4cc(OC)cn4)CC[C@@H]32)C1 [Compound 158] | 100 to 500 |
| CCOc1cnn(CC(=O)[C@H]2CC[C@H]3[C@@H]4CC[C@H]5C[C@@](O)(COC)CC[C@]5(C)[C@H]4CC[C@]23C)c1 [Compound 159] | > 500 |
